From patent US20250100972A1, “COMPOUND, RUBBER BLEND CONTAINING THE COMPOUND, VEHICLE TIRE COMPRISING THE RUBBER BLEND IN AT LEAST ONE COMPONENT, PROCESS FOR PRODUCING THE COMPOUND, AND USE OF THE COMPOUND AS AN AGEING PROTECTANT AND/OR ANTIOZONANT AND/OR DYE” (Continental Reifen Deutschland GmbH, priority 2021, published 2025)

Key:
[1] = Measurement of oxidation induction time (OIT) by DSC; format: physicochemical; settings: with liquid polyisoprene LIR-50, isothermal 180° C., switch from N2 to O2 atmosphere 50 mL/min, DSC peak; measuring accuracy ± 10 min
Protocol: The compound of formula II) was investigated under laboratory conditions for its potential protective effect as an aging stabilizer by measurement of the oxidation induction time.
To this end the compounds of formula II) and 6-PPD in each case together with a polymer (liquid synthetic polyisoprene (IR), LIR-50, Kuraray, weight average molecular weight distribution Mw=54 000 g/mol, glass transition temperature Tg=−63° C.) were heated at constant temperature (180° C.) until onset of oxidation (start temperature 35° C., heating to 170° C. at a heating rate of 20 K/min (kelvin per minute), heating to 180° C. at a heating rate of 1 K/min; purge gas: nitrogen (N2), volume flow 50 mL/min).
The specimen was isothermally maintained at 180° C. under an N2 atmosphere and the atmosphere was then switched to an O2 atmosphere (volume flow 50 mL/min).
Oxidation was determined via a peak using DSC (differential scanning calorimetry).
The time in minutes to oxidation was measured.

[2] = basic structure compared with aniline; cited from earlier work

Compound | Time to oxidation (oxidation induction time) [1] | Genotoxicity / mutagenicity according to safety data sheet [2]
CC(C)CC(C)Nc1ccc(Nc2ccccc2)cc1 (stereo not drawn) [6-PPD, N-(1,3-dimethylbutyl)-N′-phenyl-p-phenylenediamine] | 116 ± 10 min | 
CC(C)CC(C)Nc1ccc2[nH]c3ccccc3c(=O)c2c1 (stereo not drawn) [Compound of formula II), 2-(1,3-dimethylbutylamino)-acridine-9(10H)-one] | 259 ± 10 min | 
acridinone |  | neither genotoxic nor mutagenic
